Test results published in patent publication US11000487B2, “Compositions and methods for the treatment of chronic pain” (CELLIX BIO PRIVATE LIMITED, priority 2016, dated 2021).
Values after ≈ are worked out from the molar mass of the structure shown. Like-named read-outs stand apart in the source and are kept apart here.

Tests used:
[1] = comparison among long-chain fatty acids; cited from earlier work
[2] = system: oral pathogenic microorganisms; conditions: n-6 fatty acids GLA; cited from earlier work
C. albicans = conditions: cited from earlier work
Candida Species [3] = test: minimum inhibitory concentration against Candida; format: cell-based; conditions: conversion of 0.45 μmoles/ml
Candida Species [4] = conditions: cited from earlier work

Structure (SMILES)	antimicrobial activity among the long-chain fatty acids [1]	bactericidal concentration [2] [µg/mL]	activity against C. albicans (C. albicans) [%]	MIC (Candida Species [3]) [µg/mL]	MIC (Candida Species [4]) [µM]
CCCCC/C=C\C/C=C\C/C=C\CCCCC(=O)O [GLA, gamma linoleic acid]	greatest antimicrobial activity	25			
CCCCC/C=C\C/C=C\C/C=C\C/C=C\CCCC(=O)O [arachidonic acid]	greatest antimicrobial activity				
CCCCCCCCCCCCCCCC(=O)O [palmitic acid]	greatest antimicrobial activity				
CCCCCC/C=C\CCCCCCCC(=O)O [palmitoleic acid]	greatest antimicrobial activity				
CCCCC/C=C\C/C=C\CCCCCCCC(=O)O [linoleic acid]	greatest antimicrobial activity		< 40	0.13 (≈ 0.464 µM)	450 (≈ 126 µg/mL)
